Where two headings read alike, the source gives them in different places.
Legend:
Escherichia coli = assay: Bactericidal effect test of redissolved HPLC fractions on Escherichia coli suspension, colony counting method; format: cell-based; settings: component redissolved in ultrapure water, liquid temperature 24° C., mixed with Escherichia coli suspension, counted after 10 minutes; FIG. 5
Procedure: Each aqueous solution (liquid temperature: 24° C.) prepared by redissolving each component in ultrapure water was mixed with a suspension of Escherichia coli, and after 10 minutes, the viable cell count of Escherichia coli was measured by a colony counting method. The viable cell count of Escherichia coli was also measured in the same manner for the oxygen radical-unirradiated aqueous solution.

[1] = maintaining a temperature of 15° C. or lower; cited from earlier work
[2] = Bactericidal effect of oxygen radical-irradiated tryptophan-containing aqueous solution (previous research of the inventors; inference in Experimental Examples 1 to 3); format: cell-based; settings: inferred from inactive FKYN, KYN, L-Trp fractions and ESR detection of Trp⋅
Text: Therefore, in this experimental example, an attempt was made to detect Trp⋅ by electron spin resonance (ESR) spectroscopy.
Here, as shown in FIG. 12 (b), it is known that Trp. is generated by the reaction between Trp and OH⋅. […] In the formulae in FIG. 12(b), X is indicated because it is thought that OH extracts H from Trp and X becomes H2O, but what is actually formed has not been accurately confirmed at this stage.
From the above-described Experimental Examples 1 to 3, it was confirmed that the substances primarily generated by irradiating the tryptophan-containing aqueous solution with oxygen radicals are FKYN and KYN. In addition, Trp⋅, considered to be a precursor of FKYN and KYN, was detected by ESR measurement from the oxygen radical-irradiated aqueous solution. Based on the above, it is considered that short-lived precursors of FKYN and KYN (Trp⋅ and Trp peroxide) are also expressed in large quantities by the oxygen radical irradiation in terms of total generation concentration, and it can be said that the above-described precursors are bactericidal substances.

[3] = Lifespan of tryptophan radical in aqueous solution; format: physicochemical; settings: in oxygen radical-irradiated aqueous solution
Text: The precursor generated from Trp may be composed solely of Trp⋅, may be composed solely of Trp peroxide, or may include both Trp⋅ and Trp peroxide. […] Trp⋅ can be detected by electron spin resonance (ESR) spectroscopy. FKYN is generated by cleavage of a pyrrole ring in Trp peroxide. This cleavage occurs naturally in an aqueous solution. In other words, Trp peroxide decomposes on its own. Furthermore, since the generation of FKYN has been confirmed in the present disclosure, it is inferred that Trp peroxide is also generated, despite having a short lifespan. KYN is generated by the decomposition of FKYN.

Molecule | bactericidal effect (viable cell count of Escherichia coli) (Escherichia coli) | lifespan [1] | bactericidal effect [2] | lifespan [3]
N[C@@H](Cc1c[nH]c2ccccc12)C(=O)O [L-Trp, L-tryptophan] | not bactericidal substances |  |  | 
NC(CC(=O)c1ccccc1NC=O)C(=O)O (stereo not drawn) [component P1, formylkynurenine] | not bactericidal substances |  |  | 
Nc1ccccc1C(=O)CC(N)C(=O)O (stereo not drawn) [component P2, kynurenine] | not bactericidal substances |  |  | 
tryptophan radical [Trp⋅] |  | can be extended | has a bactericidal effect | short-lived substance
